Converted amounts (≈) assume the structure as drawn. Where two headings read alike, the source gives them in different places.
Tests used:
Citrobacter freundii = test: In vitro antibacterial activity, agar dilution method (MIC); assay type: cell-based; conditions: Citrobacter freundii ATCC 43864, agar dilution, 35°C, 18 hours
Experimental: (§1) According to the relevant operating procedures of the Clinical Laboratory Standards Institute (CLSI) in the United States, an antimicrobial susceptibility testing was conducted using the agar dilution method. […]. The agar was allowed to solidify and set aside for later use.
(§2) The test bacteria were propagated in broth and adjusted to a turbidity of 0.5 McFarland (approximately 1-2 × 10^8 CFU/mL) using a turbidimeter before inoculation. The 0.5 McFarland bacterial solution was then diluted 10-fold in broth (approximately 1-2 × 10^7 CFU/mL). A multipoint inoculator was used to inoculate the above bacterial solution onto a series of plates containing different concentrations of drugs (with an inoculation amount of approximately 10^4 CFU per inoculation site). After incubation at a constant temperature of 35°C for 18 hours, results were observed. The minimum concentration of drugs contained in sterile growth plates was determined as the Minimal Inhibitory Concentration (MIC).

Enterobacter aerogenes = test: as above; assay type: cell-based; conditions: Enterobacter aerogenes ATCC 13048, agar dilution, 35°C, 18 hours
Experimental: as §1, §2

Escherichia coli = test: as above; assay type: cell-based; conditions: agar dilution, 35°C, 18 hours
Experimental: as §1, §2

Klebsiella pneumoniae = test: as above; assay type: cell-based; conditions: agar dilution, 35°C, 18 hours
Experimental: as §1, §2

Pantoea agglomerans = test: as above; assay type: cell-based; conditions: Pantoea agglomerans ATCC 27993, agar dilution, 35°C, 18 hours
Experimental: as §1, §2

Proteus mirabilis = test: as above; assay type: cell-based; conditions: Proteus mirabilis ATCC 49565, agar dilution, 35°C, 18 hours
Experimental: as §1, §2

Proteus vulgaris = test: as above; assay type: cell-based; conditions: Proteus vulgaris ATCC 29905, agar dilution, 35°C, 18 hours
Experimental: as §1, §2

Pseudomonas aeruginosa = test: as above; assay type: cell-based; conditions: Pseudomonas aeruginosa PAO1, agar dilution, 35°C, 18 hours
Experimental: as §1, §2

Serratia marcescens = test: as above; assay type: cell-based; conditions: Serratia marcescens ATCC 21074, agar dilution, 35°C, 18 hours
Experimental: as §1, §2

Enterobacter cloacae = test: as above; assay type: cell-based; conditions: Enterobacter cloacae CDC1000654 (NDM-1-producing), agar dilution, 35°C, 18 hours
Experimental: According to the relevant operating procedures of the Clinical Laboratory Standards Institute (CLSI) in the United States, an antimicrobial susceptibility testing was conducted using the agar dilution method. […] The agar was allowed to solidify and set aside for later use.
as §2

[1] = biological target: T1, recombinant Escherichia coli LpxC enzyme (rLpxC) (Escherichia coli, UniProt P0A725); test: Inhibition of recombinant Escherichia coli LpxC enzyme activity (LC-MS); assay type: biochemical; conditions: 37°C, 30 minutes reaction, substrate UDP-3-O (R-hydroxytetradecanoyl)-N-acetylglucosamine
T1 sequence (P0A725 1-305): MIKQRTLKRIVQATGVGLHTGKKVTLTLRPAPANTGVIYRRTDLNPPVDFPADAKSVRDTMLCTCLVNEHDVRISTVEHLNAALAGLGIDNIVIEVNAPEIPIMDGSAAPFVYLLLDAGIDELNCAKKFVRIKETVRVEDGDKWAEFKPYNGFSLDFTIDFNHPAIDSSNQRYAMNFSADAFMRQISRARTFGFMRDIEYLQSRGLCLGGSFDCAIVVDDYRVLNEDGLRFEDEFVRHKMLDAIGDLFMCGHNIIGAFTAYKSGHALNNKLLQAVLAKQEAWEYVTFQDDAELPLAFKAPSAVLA
Experimental: Preparation of recombinant Escherichia coli LpxC enzyme (rLpxC). 2 µL of recombinant Escherichia coli LpxC enzyme (6.29 mg/mL) was added to 18 µL of distilled water. After thorough mixing, 2 µL of this mixture was added to 1042.4 µL of distilled water and mixed well to prepare a 36 nM working solution.
The substrate was UDP-3-O (R-hydroxytetradecanoyl)-N-acetylglucosamine, with UDP-α-D-N-Acetylglucosamine Disodium Salt as the internal standard. Mobile phase A: 90% water-10% acetonitrile containing 10 mM ammonium acetate; B: acetonitrile.
Reaction system: Corresponding solutions were prepared as per the table below, and placed in a 37°C metal bath, and mixed at 300 rpm for 10 minutes. After mixing for 10 minutes, 10 µl of 250 µM substrate was added to each group to initiate the reaction, and placed in a 37°C metal bath and reacted at 300 rpm for 30 minutes.
Termination solution: 1.1 µL of 1 mM internal standard was added to 2 mL of acetonitrile. 1.5 mL of EP tubes were taken and 100 µL of termination solution was added to each EP tube. The concentration of the internal standard in the final 350 µL system is 100 ng/mL.
Detection: 10 µL of reaction solution was added to 100 µL of the termination solution in an EP tube, mixed thoroughly, and then 240 µL of distilled water was added and mixed well, centrifuged at 14,000 rpm for 5 minutes. 70 µL of supernatant was transferred to an LC-MS vial and API 6500 Qtrap LC-MS system was used to measure substrates and metabolites. The median inhibition concentrations (IC50) of the four optical isomers and ACHN-975 against rLpxC enzyme were calculated. Table 4 Inhibitory activity of 4 optical isomers and control drug against recombinant Escherichia coli LpxC enzyme

Vero cells = test: Vero cytotoxicity (CCK-8); assay type: cell-based; conditions: Vero cells, 24 hours incubation, CCK-8, read-out: IC50
Experimental: All liquid was transferred to a 15 mL centrifuge tube and centrifuged at 800 rpm for 5 min. […] A cell counter was used to measure cell density. Cells were inoculated at 100 µL and a density of 3 × 10^5/mL into a 96-well plate, with 6 replicates per group, and incubated at 37°C for 4 hours to allow cells to adhere to the wall. The compound was twofold continuously diluted with PBS, and 10 µL of the compound with the corresponding concentration was added to the 96-well plate, and shaken and mixed well on a shaker, and then incubated at 37°C for 24 hours. 10 µL of CCK-8 reagent was added to the 96-well plate, mixed thoroughly on a shaker, and incubated at 37°C for 2 hours. A microplate reader was used to measure the absorbance at 450 nm wavelength, and the inhibition rate of the compound on Vero cells was calculated. Table 5 Vero cytotoxicity of 4 optical isomers and control drug

Compound: COC[C@@H]1C[C@H]1C#CC#Cc1ccc(C(=O)N[C@H](C(=O)NO)C(C)(C)N)cc1 [Ia, N-(S)-3-amino-1-hydroxyamino-3-methyl-1-oxobutan-2-yl-4-[[(1R,2R)-2-(methoxymethylene)cyclopropyl]but-1,3-diynyl]benzamide]
- MIC (Citrobacter freundii; ATCC43864, read-out: MIC): 0.25 µg/mL (≈ 0.652 µM)
- MIC (Enterobacter aerogenes; Klebsiella aerogenes, ATCC13048, read-out: MIC): 0.5 µg/mL (≈ 1.3 µM)
- MIC (Escherichia coli; Escherichia coli, 18 h, Escherichia coli 13-43 (mcr-1), read-out: MIC): 0.12 µg/mL (≈ 0.313 µM)
- MIC (Escherichia coli; Escherichia coli, 18 h, Escherichia coli 17-R28 (CRE, NDM-1-producing), read-out: MIC): 0.12 µg/mL (≈ 0.313 µM)
- MIC (Escherichia coli; Escherichia coli, ATCC2469, 18 h, Escherichia coli ATCC 2469 (CRE, NDM-1-producing), read-out: MIC): 0.12 µg/mL (≈ 0.313 µM)
- MIC (Escherichia coli; Escherichia coli, ATCC35218, 18 h, Escherichia coli ATCC 35218 (ESBLs-producing), read-out: MIC): 0.12 µg/mL (≈ 0.313 µM)
- MIC (Klebsiella pneumoniae; Klebsiella pneumoniae, 18 h, Klebsiella pneumoniae 09-20 (mcr-1), read-out: MIC): 0.25 µg/mL (≈ 0.652 µM)
- MIC (Klebsiella pneumoniae; Klebsiella pneumoniae, 18 h, Klebsiella pneumoniae 17-R27 (CRE), read-out: MIC): 0.5 µg/mL (≈ 1.3 µM)
- MIC (Klebsiella pneumoniae; Klebsiella pneumoniae, 18 h, Klebsiella pneumoniae 18-8 (ESBLs-producing), read-out: MIC): 0.06 µg/mL (≈ 0.156 µM)
- MIC (Klebsiella pneumoniae; Klebsiella pneumoniae, ATCC700603, 18 h, Klebsiella pneumoniae ATCC 700603 (ESBLs-producing), read-out: MIC): 1 µg/mL (≈ 2.61 µM)
- MIC (Klebsiella pneumoniae; Klebsiella pneumoniae, ATCCBAA2146, 18 h, Klebsiella pneumoniae ATCC BAA-2146 (CRE, NDM-1-producing), read-out: MIC): 1 µg/mL (≈ 2.61 µM)
- MIC (Pantoea agglomerans; ATCC27993, read-out: MIC): 0.5 µg/mL (≈ 1.3 µM)
- MIC (Proteus mirabilis; ATCC49565, read-out: MIC): 0.25 µg/mL (≈ 0.652 µM)
- MIC (Proteus vulgaris; ATCC29905, read-out: MIC): 0.12 µg/mL (≈ 0.313 µM)
- MIC (Pseudomonas aeruginosa; read-out: MIC): 0.5 µg/mL (≈ 1.3 µM)
- MIC (Serratia marcescens; ATCC21074, read-out: MIC): 0.25 µg/mL (≈ 0.652 µM)
- MIC (Enterobacter cloacae; read-out: MIC): 1 µg/mL (≈ 2.61 µM)
- IC50 [1]: 1.07 nM
- IC50 (Vero cells; Chlorocebus sabaeus): > 128000 nM

Compound: COCC1CC1C#CC#Cc1ccc(C(=O)NC(C(=O)NO)C(C)(C)N)cc1 (mixture of isomers) [Ia/Ib racemate]
- MIC (Citrobacter freundii): 0.25 µg/mL
- MIC (Enterobacter aerogenes): 1 µg/mL
- MIC (Escherichia coli; Escherichia coli 13-43 (mcr-1)): 0.12 µg/mL
- MIC (Escherichia coli; Escherichia coli 17-R28 (CRE, NDM-1-producing)): 0.12 µg/mL
- MIC (Escherichia coli; Escherichia coli ATCC 2469 (CRE, NDM-1-producing)): 0.5 µg/mL
- MIC (Escherichia coli; Escherichia coli ATCC 35218 (ESBLs-producing)): 0.25 µg/mL
- MIC (Klebsiella pneumoniae; Klebsiella pneumoniae 09-20 (mcr-1)): 0.5 µg/mL
- MIC (Klebsiella pneumoniae; Klebsiella pneumoniae 17-R27 (CRE)): 1 µg/mL
- MIC (Klebsiella pneumoniae; Klebsiella pneumoniae 18-8 (ESBLs-producing)): 0.5 µg/mL
- MIC (Klebsiella pneumoniae; Klebsiella pneumoniae ATCC 700603 (ESBLs-producing)): 2 µg/mL
- MIC (Klebsiella pneumoniae; Klebsiella pneumoniae ATCC BAA-2146 (CRE, NDM-1-producing)): 2 µg/mL
- MIC (Pantoea agglomerans): 1 µg/mL
- MIC (Proteus mirabilis): 1 µg/mL
- MIC (Proteus vulgaris): 0.25 µg/mL
- MIC (Pseudomonas aeruginosa): 1 µg/mL
- MIC (Serratia marcescens): 0.25 µg/mL
- MIC (Enterobacter cloacae): 2 µg/mL
- IC50 [1]: 1.03 nM
- IC50 (Vero cells): > 128000 nM

— patent publication EP4745118A1, “HYDROXAMIC ACID COMPOUND OR PHARMACEUTICALLY ACCEPTABLE SALT THEREOF, AND USE THEREOF AND PREPARATION METHOD THEREFOR” (priority 2023, dated 2025)
